# Experimental data published in patent publication US20190209454A9, “DETERMINATION OF MELANIN INHIBITION POTENTIAL OF NATURAL INGREDIENTS” (Kemin Industries, Inc., priority 2016, published 2019).
# What was measured:
# [1] = system: murine melanoma cell model; conditions: cited from earlier work
# [2] = system: MelanoDerm tissue; assay: Microscopic observation of MelanoDerm tissue; assay type: cell-based, human; conditions: end of 21 days
# Experimental: For visualization of treatment effect on tissue culture, microscopic observation of MelanoDerm tissue on day 1, 4, 10, 14 and finally on day 21 was carried out using glass bottom microwell dish with the help of benchtop inverted microscope (Nikon Inc., NY) at 20× magnification. Images were captured using Tucsen camera (Xintu Photonics Co., China) attached to the microscope.
# [3] = system: melanocyte-keratinocyte co-culture (HEK001 keratinocytes and primary epidermal melanocytes); assay: Melanin inhibition in melanocyte-keratinocyte co-culture; assay type: cell-based, human
# Experimental: Cell culture studies were performed using Human Epidermal Keratinocytes (HEK) continuous cell lines [HEK001 (ATCC® CRL-2404™) lot #61331463] and Primary epidermal melanocytes (ATCC PCS-200-013, lot #60948598). HEK cells were grown in the HEK growth media consisting of keratinocytes serum free medium (GIBCO-BRL 17005042, lot #1638561) with 5 ng/mL human recombinant epidermal growth factor (EGF) (ATCC, lot #1584416) and 2 mM L-glutamine (ATCC, lot #62195752) (without bovine pituitary extract and serum). HEK growth media was supplemented with penicillin (10000 units) and streptomycin (10 mg/mL) solution (Gibco, lot #1469707). Primary epidermal melanocytes growth media consisting of Dermal cell basal medium (ATCC PCS-200-030) with Melanocytes Growth kit [ATCC PCS-200-042] (rh Insulin 5 μg/mL, Ascorbic acid 50 μg/mL, L-glutamine 6 mM, Epinephrine calcium chloride 1.5 μM peptide growth factor and M8 supplement) and supplemented with penicillin (10 units/mL)-streptomycin (10 μg/mL)-Amphotericin B solution (25 ng/mL). […]
# HEK cells were harvested by treatment with trypsin/EDTA solution and resuspended in HEK media. Viable cells were determined by trypan blue exclusion study and counted using a hemocytometer. […]
# [4] = system: mushroom tyrosinase; assay: Tyrosinase inhibition assay; assay type: biochemical; conditions: for tyrosinase enzyme inhibition versus kojic acid: even at high concentrations (5%)
# Experimental: Rosamox (0.1%, 0.05% and 0.01%), Lysofix dry (0.1%, 0.05% & 0.01%) and Chinese lantern oil (0.1%, 0.05%, 0.01% & 0.005%) were tested for inhibition of tyrosinase enzyme activity. Kojic acid (2%, 1% & 0.5%), β-arbutin (5%, 2%, 1% & 0.5%) and hydroquinone (5%, 2%, 1% & 0.5%) served as positive controls in this study. Rosamox and Chinese lantern oil samples were prepared in Dimethylsulfoxide (DMSO). Lysofix sample, positive controls, 3,4-dihydroxyphenyl-alanine (L-DOPA) and mushroom tyrosinase were prepared using 0.1 M phosphate buffer (pH-6.6).
# Tyrosinase inhibition potential of natural ingredients was measured using a modified method published previously by Uchida et al^12. Briefly, the test samples or positive control (20 μL) were added to the reaction mixture containing 0.12 mL of 0.1 M potassium phosphate buffer (pH 6.6) in 96 well microplates and incubated at room temperature for 2 minutes. After 2 minutes of incubation, 40 μL of 10 mM L-DOPA solution was added to the reaction mixture and incubated for 5 minutes at 37° C. using a benchtop incubator (Fisher scientific, PA). Twenty microliters of mushroom tyrosinase (200 units/mL) was added to the above reaction mixture and incubated at 37° C. in a conventional lab incubator (Fisher Scientific, PA) for 10 minutes. The amount of dopachrome produced in the reaction mixture was measured spectrophotometrically using Spectramax Me5 plate reader at 475 nm. The tyrosinase activity and the % inhibition of tyrosinase in presence of test material were calculated as follows:
# Tyrosinase activity=(S(Abs)−B(Abs))/C(Abs)×100
# Inhibition (%)=1−{(S(Abs)−B(Abs))}/C(Abs)×100 Equation 1. • Formula for Measuring tyrosinase activity and % tyrosinase inhibition, where S(Abs)—sample absorbance; B(Abs)—Blank absorbance (Without enzyme) and C(Abs)—Control Absorbance [Buffer and DMSO].
smiles,measurement,setting,value
CCCCC/C=C\C/C=C\CCCCCCCC(=O)O [Linoleic acid],reduction of melanogenesis and amount of tyrosinase protein,[1],effective in reduction of melanogenesis
"O=c1cc(CO)occ1O [kojic acid, Kojic acid]",melanin granules in microscopic images,[2]; 0.5%,presence of some melanin granules
same,melanin granules in microscopic images,[2]; 1% and 2%,no sign of melanin granules
same,melanin production compared to control,"[3]; 2% (highest tested concentration), p<0.005",maximum effect
same,melanin production compared to control,"[3]; tested concentrations (2%, 1%, 0.5%), 5 days treatment",significant reduction in melanin production
same,tyrosinase enzyme inhibition compared to control,"[4]; all concentrations (0.5%, 1% and 2%)",effective in inhibiting tyrosinase enzyme
OC[C@H]1O[C@@H](Oc2ccc(O)cc2)[C@H](O)[C@@H](O)[C@@H]1O [β-arbutin],tyrosinase enzyme inhibition versus kojic acid,[4],not as effective as kojic acid
"Oc1ccc(O)cc1 [Hydroquinone, hydroquinone]",tyrosinase enzyme inhibition versus kojic acid,[4],not as effective as kojic acid
